From US12649754B2, “Prodrugs of 2-(3,5-dichloro-1-methyl-indazol-4-yl)-1-[(1S,3R)-3-(hydroxymethyl)-5-(1-hydroxy-1-methyl-ethyl)-1-methyl-3,4-dihydro-1H-isoquinolin-2-yl]ethanone” (UCB Biopharma SRL, priority 2020, dated 2026)
Converted amounts (≈) assume the structure as drawn. Where two headings read alike, the source gives them in different places.

What was measured:
[1] = Solubility by shake flask method (24 h, HPLC); type: physicochemical; settings: n=3 mean; for solubility at 24 h: thermodynamic from solid, read-out: Solubility Measurements (mean value) (24 h)
Experimental: The solubility of compounds of formula (Ia) obtained according to Example 2.12. and compounds of formula (II-A), (II-Ax) and (II-B) obtained respectively according to Examples 3.2. and 4.2., was determined in different media while using the shake flask method. An excess of solids, for (II-Ax) and (II-B) equivalent to a concentration of compound of formula (I) of 5 mg/mL, and for (II-A) equivalent to a concentration of compound of formula (I) of 1 mg/mL was suspended in 5 mL of buffer/biorelevant media as specifically described in Table 1 and incubated in a sealed glass vial (10 mL) for 24 h at room temperature or 37° C. (as indicated below) in a climatic chamber equipped with a rotary mixer. The 24 h time point was assumed to have reached solubility, at which time the suspension was filtered through a 0.45-μm ultra free filter (Merck Millipore) and the drug content was determined by HPLC. The solubility of compounds (Ia), (II-A), (II-Ax) and (II-B) was determined in triplicate (n=3) and mean value calculated.
The media tested are respectively water, phosphate buffer, FasSGF, FASSIF-V2 and FeSSIF-V2. FasSG is fasted condition gastric fluid. FasSGF is prepared at pH 1.6 and contains 0.08 mM Taurocholate, 0.02 mM phospholipids, 34 mM sodium and 59 mM chloride. FaSSIF-V2 and FeSSIF-V2 are Fasted and Fed State Biorelevant Media, respectively. FaSSIF-V2 is prepared at pH 6.5 and contains 3 mM Taurocholate, 0.2 mM Phospholipids, 106 mM Sodium, 69 mM Chloride and 19 mM Maleic acid. FeSSIF-V2 is prepared at pH 5.8 and contains 10 mM Taurocholate, 2 mM Phospholipids, 0.8 mM Oleate, 5 mM Glycerol monoleate, 218 mM Sodium, 125 mM Chloride and 55 mM Maleic acid.

[2] = In vivo bioavailability of oral suspensions of prodrugs, plasma LC/MS; settings: male Sprague-Dawley rats, single oral dose of suspension corresponding to 3 mg/kg of compound (I), plasma 0.12 h to 8 h
Experimental: The formulation vehicle used in the following suspension is a mixture of 1% (w/v) methylcellulose (400 cps), 0.1% (weight/volume) TWEEN® 80, 0.1% (w/v) Antifoam 1510 US in 25 mM phosphate buffer pH 3.0 in water. […]
The solution is homogenized by sonication during 1 minute, repeated 3 times.
Three male Sprague-Dawley rats were administered the respective suspensions of (II-A), (II-B) and (II-C), as described in paragraph 7.1 above, at a single oral dose corresponding to 3 mg/kg of compound of formula (I).
Plasma samples were collected 0.12 h, 0.25 h, 0.5 h, 1 h, 2 h, 4 h and 8 h following dosing.
Plasma concentrations of compound (I) and respective compounds (II-A), (II-B) and (II-C) were quantified by LC/MS (liquid chromatography/mass spectrometry).

[3] = phosphate buffer, pH 4, aqueous buffer, Phosphate buffer (50 mM), pH 4.0, RT
[4] = water, pH 7, water, Water, pH 7.0, RT
[5] = phosphate buffer, pH 6.5, aqueous buffer, Phosphate buffer (50 mM), pH 6.5, RT
[6] = FaSSIF-V2, 37 °C, pH 6.5, fassif, FaSSIF-V2, pH 6.5, 37° C.
[7] = FasSGF, 37 °C, pH 1.6, fassgf or other biorelevant, FasSGF, pH 1.6, 37° C.
[8] = FeSSIF-V2, 37 °C, pH 5.8, fessif, FeSSIF-V2, pH 5.8, 37° C.

## C[C@H]1c2cccc(C(C)(C)O)c2C[C@H](COP(=O)(O)O)N1C(=O)Cc1c(Cl)ccc2c1c(Cl)nn2C [(II-A), [(1S,3R)-2-[2-(3,5-dichloro-1-methyl-indazol-4-yl)acetyl]-5-(1-hydroxy-1-methyl-ethyl)-1-methyl-3,4-dihydro-1H-isoquinolin-3-yl]methyl dihydrogen phosphate]
[1]; FaSSIF-V2, pH 6.5, 37° C.
  Solubility Measurements (mean value) (24 h): ~1100 µg/mL
[1]; [3]
  solubility at 24 h: ~1000 µg/mL
[1]; [4]
  solubility at 24 h: ~1000 µg/mL
[2]
  cleavage of prodrug into compound of formula (I) in plasma: completely cleaved

## C[C@H]1c2cccc(C(C)(C)O)c2C[C@H](COP(=O)(O)O)N1C(=O)Cc1c(Cl)ccc2c1c(Cl)nn2C [(II-Ax), [(1S,3R)-2-[2-(3,5-dichloro-1-methyl-indazol-4-yl)acetyl]-5-(1-hydroxy-1-methyl-ethyl)-1-methyl-3,4-dihydro-1H-isoquinolin-3-yl]methyl dihydrogen phosphate]
[1]; FaSSIF-V2, pH 6.5, 37° C.
  Solubility Measurements (mean value) (24 h): >5000 µg/mL
[1]; FeSSIF-V2, pH 5.8, 37° C.
  Solubility Measurements (mean value) (24 h): >5000 µg/mL
[1]; [5]
  solubility at 24 h: > 5000 µg/mL

## CC(C)[C@H](N)C(=O)OC[C@H]1Cc2c(cccc2C(C)(C)O)[C@H](C)N1C(=O)Cc1c(Cl)ccc2c1c(Cl)nn2C [(II-B), [(1S,3R)-2-[2-(3,5-dichloro-1-methyl-indazol-4-yl)acetyl]-5-(1-hydroxy-1-methyl-ethyl)-1-methyl-3,4-dihydro-1H-isoquinolin-3-yl]methyl (2S)-2-amino-3-methyl-butanoate]
[1]; [6]
  solubility at 24 h: ~30 µg/mL (≈ 52.1 µM)
[1]; [7]
  solubility at 24 h: ~4800 µg/mL (≈ 8340 µM)
[1]; [8]
  solubility at 24 h: ~900 µg/mL (≈ 1560 µM)
[1]; [3]
  solubility at 24 h: ~850 µg/mL (≈ 1480 µM)
[1]; [5]
  solubility at 24 h: ~70 µg/mL (≈ 122 µM)
[1]; [4]
  solubility at 24 h: ~40 µg/mL (≈ 69.5 µM)
[2]
  cleavage of prodrug into compound of formula (I) in plasma: partially cleaved

## CC(C)C[C@H](N)C(=O)OC[C@H]1Cc2c(cccc2C(C)(C)O)[C@H](C)N1C(=O)Cc1c(Cl)ccc2c1c(Cl)nn2C [(II-C), [(1S,3R)-2-[2-(3,5-dichloro-1-methyl-indazol-4-yl)acetyl]-5-(1-hydroxy-1-methyl-ethyl)-1-methyl-3,4-dihydro-1H-isoquinolin-3-yl]methyl (2S)-2-amino-4-methyl-pentanoate]
[2]
  cleavage of prodrug into compound of formula (I) in plasma: completely cleaved

## C[C@H]1c2cccc(C(C)(C)O)c2C[C@H](CO)N1C(=O)Cc1c(Cl)ccc2c1c(Cl)nn2C [(Ia), 2-(3,5-dichloro-1-methyl-indazol-4-yl)-1-[(1S,3R)-3-(hydroxymethyl)-5-(1-hydroxy-1-methyl-ethyl)-1-methyl-3,4-dihydro-1H-isoquinolin-2-yl]ethanone]
[1]; [6]
  solubility at 24 h: ~1.5 µg/mL (≈ 3.15 µM)
[1]; [7]
  solubility at 24 h: < 1 µg/mL
[1]; [8]
  solubility at 24 h: ~4 µg/mL (≈ 8.4 µM)
[1]; [3]
  solubility at 24 h: < 1 µg/mL
[1]; [5]
  solubility at 24 h: < 1 µg/mL
[1]; [4]
  solubility at 24 h: < 1 µg/mL
